Measured values: patent US20240199587A1, “HETEROCYCLIC COMPOUNDS” (Hoffmann-La Roche Inc., priority 2021, published 2024)

These compounds were tested against T1, MAGL (Homo sapiens, UniProt Q99685) (assay: 2-AG assay (MAGL inhibitory activity, hydrolysis of 2-arachidonoylglycerol to arachidonic acid followed by mass spectrometry)). Details: 8 μM 2-arachidonoylglycerol, 15 min pre-incubation, 30 min incubation at RT, RapidFire MS readout.
T1 sequence (Q99685 1-303): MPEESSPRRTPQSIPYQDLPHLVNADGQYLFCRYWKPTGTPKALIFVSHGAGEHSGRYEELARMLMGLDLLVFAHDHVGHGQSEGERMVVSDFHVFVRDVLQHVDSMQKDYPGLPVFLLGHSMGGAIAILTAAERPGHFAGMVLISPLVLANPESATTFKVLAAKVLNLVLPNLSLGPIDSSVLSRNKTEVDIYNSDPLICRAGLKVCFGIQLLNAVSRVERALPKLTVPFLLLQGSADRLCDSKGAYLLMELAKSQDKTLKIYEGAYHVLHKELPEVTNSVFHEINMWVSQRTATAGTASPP
Assay type: biochemical
Outline: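 Arachidonic acid released from 8 μM 2-arachidonoylglycerol was quantified by online SPE triple-quadrupole MS (negative ESI, 303.1→259.1), normalised to d8-arachidonic acid internal standard. Reaction ran 30 min at RT after 15 min RT compound pre-incubation with […] MAGL in TRIS/EDTA/Tween-20 buffer, 2.5% DMSO.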

SMILES | IC50
O=C(N1CC2(CC(Cc3ccc(F)cn3)C2)C1)N1CC2(CC(n3cnc(C4CC4)n3)C2)C1 [Example 217, [6-(3-cyclopropyl-1,2,4-triazol-1-yl)-2-azaspiro[3.3]heptan-2-yl]-[6-[(5-fluoro-2-pyridyl)methyl]-2-azaspiro[3.3]heptan-2-yl]methanone] | 2 nM
Cc1cn(C2CC3(C2)CN(C(=O)N2CC4(CC(Cc5ccc(F)cc5F)C4)C2)C3)cn1 [Example 218, [6-[(2,4-difluorophenyl)methyl]-2-azaspiro[3.3]heptan-2-yl]-[6-(4-methylimidazol-1-yl)-2-azaspiro[3.3]heptan-2-yl]methanone] | 2.1 nM
COc1c(OC2CN(C(=O)N3CC4(CC(n5cnc(C6CC6)n5)C4)C3)C2)cccc1C(F)(F)F [Example 219, (6-(3-cyclopropyl-1H-1,2,4-triazol-1-yl)-2-azaspiro[3.3]heptan-2-yl)(3-(2-methoxy-3-(trifluoromethyl)phenoxy)azetidin-1-yl)methanone] | 2.2 nM
O=C(N1CC2(CC(n3cnc(C4CC4)n3)C2)C1)N1CC2(CN(Cc3cc(F)cc(F)c3)C2)C1 [Example 221, [6-(3-cyclopropyl-1,2,4-triazol-1-yl)-2-azaspiro[3.3]heptan-2-yl]-[6-[(3,5-difluorophenyl)methyl]-2,6-diazaspiro[3.3]heptan-2-yl]methanone] | 2.5 nM
O=C(N1CC(Oc2cccc(C(F)(F)F)c2Cl)C1)N1CC2(CC(n3cnc(C4CC4)n3)C2)C1 [Example 222, (3-(2-chloro-3-(trifluoromethyl)phenoxy)azetidin-1-yl)(6-(3-cyclopropyl-1H-1,2,4-triazol-1-yl)-2-azaspiro[3.3]heptan-2-yl)methanone] | 2.6 nM
O=C(N1CC2(CC(n3cnc(C4CC4)n3)C2)C1)N1CC2(C1)CN(S(=O)(=O)c1ccccc1C(F)(F)F)C2 [Example 223, [6-(3-cyclopropyl-1,2,4-triazol-1-yl)-2-azaspiro[3.3]heptan-2-yl]-[2-[2-(trifluoromethyl)phenyl]sulfonyl-2,6-diazaspiro[3.3]heptan-6-yl]methanone] | 3 nM
O=C(N1CC2(CC(n3cnc(C4CC4)n3)C2)C1)N1CC2(C1)CN(S(=O)(=O)C1CCCCC1)C2 [Example 224, (2-cyclohexylsulfonyl-2,6-diazaspiro[3.3]heptan-6-yl)-[6-(3-cyclopropyl-1,2,4-triazol-1-yl)-2-azaspiro[3.3]heptan-2-yl]methanone] | 3 nM
O=C(N1CC2(CC(n3cnc(C4CC4)n3)C2)C1)N1CC2(C1)CN(S(=O)(=O)c1ccc(C(F)(F)F)cc1)C2 [Example 225, [6-(3-cyclopropyl-1,2,4-triazol-1-yl)-2-azaspiro[3.3]heptan-2-yl]-[2-[4-(trifluoromethyl)phenyl]sulfonyl-2,6-diazaspiro[3.3]heptan-6-yl]methanone] | 3.3 nM
O=C(N1CC2(CC(n3cnc(C4CC4)n3)C2)C1)N1CC2(C1)CN(S(=O)(=O)c1cc(F)cc(C(F)(F)F)c1)C2 [Example 226, [6-(3-cyclopropyl-1,2,4-triazol-1-yl)-2-azaspiro[3.3]heptan-2-yl]-[2-[3-fluoro-5-(trifluoromethyl)phenyl]sulfonyl-2,6-diazaspiro[3.3]heptan-6-yl]methanone] | 3.6 nM
O=C(N1CCC([C@@H](c2ccc(F)cc2)c2nc(C3CC3)no2)CC1)N1CC2(CC(n3cnc(C4CC4)n3)C2)C1 [Example 227, [4-[(S)-(3-cyclopropyl-1,2,4-oxadiazol-5-yl)-(4-fluorophenyl)methyl]-1-piperidyl]-[6-(3-cyclopropyl-1,2,4-triazol-1-yl)-2-azaspiro[3.3]heptan-2-yl]methanone] | 3.8 nM
O=C(N1CC2(CC(n3cnc(C4CC4)n3)C2)C1)N1CC2(C1)CN(S(=O)(=O)c1ccc(F)cc1Cl)C2 [Example 228, [2-(2-chloro-4-fluoro-phenyl)sulfonyl-2,6-diazaspiro[3.3]heptan-6-yl]-[6-(3-cyclopropyl-1,2,4-triazol-1-yl)-2-azaspiro[3.3]heptan-2-yl]methanone] | 4.2 nM
COC(=O)c1ccccc1CN1CC2(C1)CN(C(=O)N1CC3(CC(n4cnc(C5CC5)n4)C3)C1)C2 [Example 229, methyl 2-[[2-[6-(3-cyclopropyl-1,2,4-triazol-1-yl)-2-azaspiro[3.3]heptane-2-carbonyl]-2,6-diazaspiro[3.3]heptan-6-yl]methyl]benzoate] | 4.5 nM
O=C(N1CC2(CC(n3cnc(C4CC4)n3)C2)C1)N1CC2(C1)CN(S(=O)(=O)c1ccc(OC(F)(F)F)cc1)C2 [Example 230, [6-(3-cyclopropyl-1,2,4-triazol-1-yl)-2-azaspiro[3.3]heptan-2-yl]-[2-[4-(trifluoromethoxy)phenyl]sulfonyl-2,6-diazaspiro[3.3]heptan-6-yl]methanone] | 4.6 nM

Other lines, results leading:

IC50 | SMILES
4.6 nM | O=C(N1CC2(CC(n3cnc(C4CC4)n3)C2)C1)N1CC2(C1)CN(S(=O)(=O)c1ccc(F)cc1F)C2 [Example 231, [6-(3-cyclopropyl-1,2,4-triazol-1-yl)-2-azaspiro[3.3]heptan-2-yl]-[2-(2,4-difluorophenyl)sulfonyl-2,6-diazaspiro[3.3]heptan-6-yl]methanone]
4.6 nM | O=C(N1CC2(CC(n3cnc(C4CC4)n3)C2)C1)N1CC2(CN(Cc3ccc(C(F)(F)F)cn3)C2)C1 [Example 232]
5.3 nM | O=C(N1CC2(CC(n3cnc(C4CC4)n3)C2)C1)N1CC2(C1)CN(S(=O)(=O)c1cccc(OC(F)(F)F)c1)C2 [Example 233, [6-(3-cyclopropyl-1,2,4-triazol-1-yl)-2-azaspiro[3.3]heptan-2-yl]-[2-[3-(trifluoromethoxy)phenyl]sulfonyl-2,6-diazaspiro[3.3]heptan-6-yl]methanone]
5.4 nM | O=C(N1CC2(CC(n3cnc(C4CC4)n3)C2)C1)N1CC2(CN(Cc3ccc(F)cc3F)C2)C1 [Example 234, [6-(3-cyclopropyl-1,2,4-triazol-1-yl)-2-azaspiro[3.3]heptan-2-yl]-[6-[(2,4-difluorophenyl)methyl]-2,6-diazaspiro[3.3]heptan-2-yl]methanone]
6 nM | O=C(N1CC(Oc2cncc(C3CC3)c2Cl)C1)N1CC2(CC(n3cnc(C4CC4)n3)C2)C1 [Example 235, [3-[(4-chloro-5-cyclopropyl-3-pyridyl)oxy]azetidin-1-yl]-[6-(3-cyclopropyl-1,2,4-triazol-1-yl)-2-azaspiro[3.3]heptan-2-yl]methanone]
6.2 nM | O=C(N1CC2(CC(n3cnc(C4CC4)n3)C2)C1)N1CC2(C1)CN(S(=O)(=O)c1ccc(F)c(C(F)(F)F)c1)C2 [Example 236, [6-(3-cyclopropyl-1,2,4-triazol-1-yl)-2-azaspiro[3.3]heptan-2-yl]-[2-[4-fluoro-3-(trifluoromethyl)phenyl]sulfonyl-2,6-diazaspiro[3.3]heptan-6-yl]methanone]
6.4 nM | O=C(N1CC2(CC(n3cnc(C4CC4)n3)C2)C1)N1CC2(C1)CN(S(=O)(=O)N1CCCCC1)C2 [Example 237, [6-(3-cyclopropyl-1,2,4-triazol-1-yl)-2-azaspiro[3.3]heptan-2-yl]-[2-(1-piperidylsulfonyl)-2,6-diazaspiro[3.3]heptan-6-yl]methanone]
6.5 nM | CS(=O)(=O)c1cc(F)ccc1OC1CCC2(CC1)CN(C(=O)N1CC3(CC(n4cnc(C5CC5)n4)C3)C1)C2 [Example 238, [6-(3-cyclopropyl-1,2,4-triazol-1-yl)-2-azaspiro[3.3]heptan-2-yl]-[7-(4-fluoro-2-mesyl-phenoxy)-2-azaspiro[3.5]nonan-2-yl]methanone]
6.6 nM | CC(C)(C)CS(=O)(=O)N1CC2(CN(C(=O)N3CC4(CC(n5cnc(C6CC6)n5)C4)C3)C2)C1 [Example 239]
6.8 nM | N#Cc1ccccc1S(=O)(=O)N1CC2(CN(C(=O)N3CC4(CC(n5cnc(C6CC6)n5)C4)C3)C2)C1 [Example 240]
8.7 nM | Cc1ccc(OC2CN(C(=O)N3CC4(CC(n5cnc(C6CC6)n5)C4)C3)C2)c(F)c1 [Example 241, (6-(3-cyclopropyl-1H-1,2,4-triazol-1-yl)-2-azaspiro[3.3]heptan-2-yl)(3-(2-fluoro-4-methylphenoxy)azetidin-1-yl)methanone]
8.8 nM | O=C(N1CC2(CC(n3cnc(C4CC4)n3)C2)C1)N1CC2(C1)CN(S(=O)(=O)c1c(F)cc(F)cc1F)C2 [Example 242, [6-(3-cyclopropyl-1,2,4-triazol-1-yl)-2-azaspiro[3.3]heptan-2-yl]-[2-(2,4,6-trifluorophenyl)sulfonyl-2,6-diazaspiro[3.3]heptan-6-yl]methanone]
8.8 nM | O=C(N1CC2(CC(n3cnc(C4CC4)n3)C2)C1)N1CC2(C1)CN(S(=O)(=O)c1cccnc1Cl)C2 [Example 243, [2-[(2-chloro-3-pyridyl)sulfonyl]-2,6-diazaspiro[3.3]heptan-6-yl]-[6-(3-cyclopropyl-1,2,4-triazol-1-yl)-2-azaspiro[3.3]heptan-2-yl]methanone]
9 nM | O=C(N1CC2(CC(n3cnc(C4CC4)n3)C2)C1)N1CC2(C1)CN(S(=O)(=O)CC1CCCCC1)C2 [Example 244, [2-(cyclohexylmethylsulfonyl)-2,6-diazaspiro[3.3]heptan-6-yl]-[6-(3-cyclopropyl-1,2,4-triazol-1-yl)-2-azaspiro[3.3]heptan-2-yl]methanone]
9.9 nM | COc1cccc(S(=O)(=O)N2CC3(CN(C(=O)N4CC5(CC(n6cnc(C7CC7)n6)C5)C4)C3)C2)c1 [Example 245, [6-(3-cyclopropyl-1,2,4-triazol-1-yl)-2-azaspiro[3.3]heptan-2-yl]-[2-(3-methoxyphenyl)sulfonyl-2,6-diazaspiro[3.3]heptan-6-yl]methanone]
